From patent US12419900B2, “Induction of synthetic lethality with epigenetic therapy” (The Johns Hopkins University, priority 2017, dated 2025)

What was measured:
Satellite 2 sequences = assay: Bisulfite genomic sequencing of repetitive elements; assay type: cell-based; settings: DU145; vehicle control 45.09%
DNMT1 = assay: Protein levels in DU145 cells (data not shown); assay type: cell-based
[1] = system: DU145 prostate cancer cells; assay: Alamar blue cell viability and growth, alisertib x decitabine dose matrix; assay type: cell-based; settings: DU145; for Percent Growth Inhibition: Alisertib 0 nM
Method: DU145 prostate cancer cells and A549 lung cancer cells were treated with varying concentrations (0 nM, 10 nM, 50 nM, and 100 nM) of alisertib in addition to varying concentrations of decitabine (0 nM, 50 nM, 100 nM, and 250 nM). Representative data are shown in FIGS. 2A and 2B, as well as the Tables below. […] In each panel, a dose response of each drug alone and in combination was used in Alamar blue cell viability assays. […] Formal synergy analyses were performed using the Bliss independence score (where values greater than zero indicate greater than additive effect). […] The graph of FIG. 2A is a growth curve of the DU145 prostate cancer cells for the agents alone (decitabine and alisertib separately), a vehicle control, and the agents in combination (decitabine and alisertib together). […] Likewise, the graph of FIG. 2B is a growth curve of the A549 lung cancer cells for the agents alone (decitabine and alisertib separately), a vehicle control, and the agents in combination (decitabine and alisertib together). […] The synergy analysis of the combination of decitabine and alisertib was evaluated in a series of 18 cancer cell lines (9 prostate, 1 ovarian, 1 lung, 2 colon, 2 central nervous system, and 3 breast cancer cell lines) and 2 non-cancer cell models.

A549 lung cancer cells = assay: as above; assay type: cell-based; settings: Alisertib 0 nM
Method: DU145 prostate cancer cells and A549 lung cancer cells were treated with varying concentrations (0 nM, 10 nM, 50 nM, and 100 nM) of alisertib in addition to varying concentrations of decitabine (0 nM, 50 nM, 100 nM, and 250 nM). Representative data are shown in FIGS. 2A and 2B, as well as the Tables below. […] Formal synergy analyses were performed using the Bliss independence score (where values greater than zero indicate greater than additive effect). […] The graph of FIG. 2A is a growth curve of the DU145 prostate cancer cells for the agents alone (decitabine and alisertib separately), a vehicle control, and the agents in combination (decitabine and alisertib together). […] Likewise, the graph of FIG. 2B is a growth curve of the A549 lung cancer cells for the agents alone (decitabine and alisertib separately), a vehicle control, and the agents in combination (decitabine and alisertib together). […] The synergy analysis of the combination of decitabine and alisertib was evaluated in a series of 18 cancer cell lines (9 prostate, 1 ovarian, 1 lung, 2 colon, 2 central nervous system, and 3 breast cancer cell lines) and 2 non-cancer cell models.

DNMT3B = assay: Western Blot in DU145 cells; assay type: cell-based; settings: 100 nM decitabine, 100 nM alisertib
Method: DNA methyltransferase enzymes comprise a family of enzymes including DNMT1, DNMT3A, and DNMT3B. […] In this study, Western Blot analyses for DNMT3B were performed on DU145 cell tissue sample treated with vehicle control; 100 nM alisertib alone; 100 nM decitabine alone; and 100 nM of decitabine in combination with 100 nM of alisertib.

DU145 xenograft tumor = assay: In vivo xenograft study of DU145, decitabine and alisertib; parameters: species or system nude mice; settings: for Fold Change in Tumor Size, Mean: DAC 0.75 mg/kg alone
Method: Using in vivo xenograft studies of the DU145 prostate cancer cell line, the effect was explored of the treatment of two dose levels of alisertib alone or in combination with decitabine using two different treatment time schedules over a period of seven weeks. First, nude mice were inoculated with DU145 cells that were allowed to incubate for 10-12 days to establish xenograft tumor. The inoculated mice were then treated concomitantly with both a high dose and a low dose of alisertib and decitabine in the first two weeks or primed with decitabine alone for two weeks followed by alisertib alone in the first cycle. The dose of decitabine was held constant at 0.75 mg/kg and given with either low-dose (15 mg/kg) or high-dose (25 mg/kg) alisertib, as indicated in FIG. 4. The cumulative number of doses of decitabine and alisertib was the same in all combination treatment arms in both schedules.

Aurora Kinase A (AURKA) = assay: Western Blot in DU145 cells; assay type: cell-based; settings: 100 nM decitabine, 100 nM alisertib
Method: Western Blot analyses for AURKA were performed on DU145 cell tissue sample treated with vehicle control; 100 nM alisertib alone; 100 nM decitabine alone; and 100 nM of decitabine in combination with 100 nM of alisertib.

primary hepatocytes = assay: Cell viability and growth, alisertib x decitabine dose matrix; assay type: cell-based; settings: Alisertib 0 nM
Method: The synergy analysis of the combination of decitabine and alisertib was evaluated in a series of 18 cancer cell lines (9 prostate, 1 ovarian, 1 lung, 2 colon, 2 central nervous system, and 3 breast cancer cell lines) and 2 non-cancer cell models. A final cumulative Bliss synergy score was calculated based on the sum of the synergy values from each of the 16 combinations of 0 nM, 10 nM, 50 nM, and 100 nM of alsertib together with 0 nM, 50 nM, 100 nM, and 250 nM of decitabine.

[2] = system: residual xenograft tumors; assay: KI-67 and Caspase 3A staining of residual xenograft tumors; assay type: in vivo, nude mice; settings: decitabine pre-treatment experiment
Source text: The proliferative index and apoptotic fraction in residual xenograft tumors from the decitabine pre-treatment experiment was then examined. Sample cells from each of the vehicle control, decitabine pre-treatment alone, alisertib alone, and decitabine pretreatment in combination with alisertib were stained with either KI-67 or Caspase 3A.

PC-3 cancer cells = assay: Clonogenic survival; assay type: cell-based, human; settings: 72 hours treatment, colonies ten days later, vehicle control 100.00, 12-27 replicates
Method: To assay for cancer clonogenic survival, PC-3 cancer cells were seeded into 6-well plates at 5,000 cells/well and allowed to attach overnight. Next, the cells were treated for 72 hours with vehicle control or KCC-08, both with and without isotretinoin, washed three times with phosphate-buffered saline, and then placed back into complete growth medium. Ten days later, colonies founded by surviving cells were detected using crystal violet staining.

[3] = system: retinoic acid signaling pathway; assay: pRARE-luciferase reporter of retinoic acid signaling in PC-3 cells; assay type: cell-based, human; settings: 72 hours
Method: To determine whether MBD2 protein inhibitors triggered retinoic acid signaling pathway activation, KCC-08 was administered to PC-3 human prostate cancer cells transfected with a heterologous reporter plasmid responsive to the presence of retinoic acid signaling (pRARE-luciferase), and the cells were used to assess reactivation of the retinoic acid response signaling pathway. The cancer cells were treated with a vehicle control or KCC-08 (10 μM) both with and without isotretinoin (5 μM) for 72 hours, and then assayed for luciferase reporter production.

PC-3 xenograft tumors = assay: PC-3 xenograft growth suppression; assay type: in vivo, Male Fox1-nude mice; settings: KCC-08 i.p. 1 then 0.5 mg/kg, isotretinoin oral 30 mg/kg
Method: For cancer xenograft growth suppression, one million human PC-3 prostate cancer cells were suspended in Matrigel and inoculated into the flanks of Male Fox1-nude mice provided by Jackson Laboratory (Bar Harbor, ME). When the resultant xenograft tumors were measurable two weeks later, the tumor-bearing mice were treated with KCC-08, given by intraperitoneal infection in saline for 5 of 7 days at 1 mg/kg for week 1 and then 0.5 mg/kg for 5 of 7 days for week 2. Isotretinoin was given by oral gavage in peanut oil at 30 mg/kg for the same 5 of 7 days as the KCC-08 for weeks 1 and 2. For week 3, isotretinoin was given by oral gavage in peanut oil at 30 mg/kg for 5 of 7 days, and KCC-08 was not administered. Tumors were measured 3 times a week for 3 weeks, and the volume was estimated by using the formula 4/3*Π*width*length*depth.

[4] = KCC-08 10 μM, isotretinoin 5 μM, vehicle average 1.00

Nc1ncn([C@H]2C[C@H](O)[C@@H](CO)O2)c(=O)n1 [decitabine, 5-aza-2′-deoxycytidine]
percent of CpG Satellite 2 methylation (Satellite 2 sequences): 33.33% | DNMT1 levels (DNMT1): significantly reduced | Percent Growth Inhibition ([1]; DAC 50 nM): 0.04 | Percent Growth Inhibition ([1]; DAC 100 nM): 0.08 | Percent Growth Inhibition ([1]; DAC 250 nM): 0.77 | cell survival in tissue culture ([1]; low dose decitabine 100 nM): most of the cells survived | Percent Growth Inhibition (A549 lung cancer cells; DAC 50 nM): 0.03 | Percent Growth Inhibition (A549 lung cancer cells; DAC 100 nM): 0 | Percent Growth Inhibition (A549 lung cancer cells; DAC 250 nM): 0.14 | DNMT3B levels (DNMT3B): did not significantly alter | Fold Change in Tumor Size, Mean (DU145 xenograft tumor; week 0): 1 | Fold Change in Tumor Size, Mean (DU145 xenograft tumor; week 1): 1.31 | Fold Change in Tumor Size, Mean (DU145 xenograft tumor; week 2): 1.90 | Fold Change in Tumor Size, Mean (DU145 xenograft tumor; week 3): 2.68 | Fold Change in Tumor Size, Mean (DU145 xenograft tumor; week 4): 3.81 | Fold Change in Tumor Size, Mean (DU145 xenograft tumor; week 5): 4.60 | Fold Change in Tumor Size, Mean (DU145 xenograft tumor; week 6): 5.10 | Fold Change in Tumor Size, Mean (DU145 xenograft tumor; week 7): 5.49 | tumor growth (FIG. 5A) (DU145 xenograft tumor; decitabine alone, alisertib high and low dose alone, combinations concurrent or primed, low and high dose alisertib): continued to grow at a significant rate | xenograft tissue growth or survival compared to the vehicle control (DU145 xenograft tumor; single agent therapy at the doses tested (decitabine 0.75 mg/kg; alisertib 15 or 25 mg/kg)): did not significantly alter | AURKA protein levels (Aurora Kinase A (AURKA)): significantly induce | Percent Growth Inhibition (primary hepatocytes; DAC 50 nM): 0.16 | Percent Growth Inhibition (primary hepatocytes; DAC 100 nM): 0.30 | Percent Growth Inhibition (primary hepatocytes; DAC 250 nM): 0.29 | Caspase 3A staining (apoptosis) [2]: almost no alteration | KI-67 staining (cell proliferation) [2]: almost no alteration

Cn1c2ccccc2n2cc(-c3ccc([N+](=O)[O-])cc3)nc12 [KCC-08]
Clonogenic Survival Relative to Control, Average (PC-3 cancer cells): 96.86 | luciferase activity / retinoic acid signaling pathway activation ([3]; KCC-08 10 μM with or without isotretinoin 5 μM): enhanced | RAR Reporter Activity, Average [3, 4]: 2.24 | RAR Reporter Activity, Trial 1 [3, 4]: 2.08 | RAR Reporter Activity, Trial 2 [3, 4]: 2.31 | RAR Reporter Activity, Trial 3 [3, 4]: 1.96 | RAR Reporter Activity, Trial 4 [3, 4]: 2.46 | RAR Reporter Activity, Trial 5 [3, 4]: 2.36 | RAR Reporter Activity, Trial 6 [3, 4]: 2.28 | Percent average xenograft tumor volume relative to baseline, Average (PC-3 xenograft tumors; Day 1): 100% | Percent average xenograft tumor volume relative to baseline, Average (PC-3 xenograft tumors; Day 4): 151.16% | Percent average xenograft tumor volume relative to baseline, Average (PC-3 xenograft tumors; Day 8): 223.22% | Percent average xenograft tumor volume relative to baseline, Average (PC-3 xenograft tumors; Day 11): 250.94% | Percent average xenograft tumor volume relative to baseline, Average (PC-3 xenograft tumors; Day 15): 338.37% | Percent average xenograft tumor volume relative to baseline, Average (PC-3 xenograft tumors; Day 18): 406.04% | Percent average xenograft tumor volume relative to baseline, Average (PC-3 xenograft tumors; Day 22): 452.09%
